# Experimental data as given in patent publication US10028942B2 (priority 2013, dated 2018).
# Target: T1, DLK (Homo sapiens, UniProt Q12852)
# T1 sequence (Q12852 1-520): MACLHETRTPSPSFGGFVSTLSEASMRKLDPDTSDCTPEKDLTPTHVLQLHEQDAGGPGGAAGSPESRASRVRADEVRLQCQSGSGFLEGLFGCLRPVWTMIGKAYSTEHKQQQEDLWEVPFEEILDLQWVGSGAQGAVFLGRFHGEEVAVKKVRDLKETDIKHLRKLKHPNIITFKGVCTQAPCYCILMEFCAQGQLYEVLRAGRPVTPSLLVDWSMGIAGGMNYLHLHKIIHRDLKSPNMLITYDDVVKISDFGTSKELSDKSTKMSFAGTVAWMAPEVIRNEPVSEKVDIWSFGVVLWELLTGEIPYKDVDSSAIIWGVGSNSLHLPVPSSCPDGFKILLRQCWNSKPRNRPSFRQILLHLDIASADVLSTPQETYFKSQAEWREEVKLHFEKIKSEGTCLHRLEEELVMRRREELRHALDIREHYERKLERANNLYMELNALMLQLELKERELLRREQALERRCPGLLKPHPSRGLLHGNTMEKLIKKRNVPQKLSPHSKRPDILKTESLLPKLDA
# Test: not given
# Settings: read-out: DLK (Ki) μM; TR-FRET; 5 nM GST-tagged DLK (catalytic domain aa 1-520), 40 nM HIS-MKK4 K131M substrate, 30 μM ATP, 60 minutes
row,Structure (SMILES),Ki [µM]
1,"Nc1ncc(-c2cc([C@H]3[C@@H]4CN(C5COC5)C[C@@H]43)n(C3CCC3)n2)cc1C1CC1 [Compound 153, 5-(1-cyclobutyl-5-((1R,5S,6r)-3-(oxe-tan-3-yl)-3-azabicyclo[3.1.0]hexan-6-yl)-1H-pyrazol-3-yl)-3-cyclopropyl-pyridin-2-amine]",0.011
2,"CS(=O)(=O)c1cc(-c2cc([C@H]3[C@@H]4CN(C5COC5)C[C@@H]43)n(C3CCCC3)n2)cnc1N [Compound 155, 5-(1-cyclopentyl-5-((1R,5S,6r)-3-(oxe-tan-3-yl)-3-azabicyclo[3.1.0]hexan-6-yl)-1H-pyrazol-3-yl)-3-(methyl-sulfonyl)pyridin-2-amine]",0.3
3,"CC(C)Oc1cc(-c2cc([C@H]3[C@@H]4CN(C5COC5)C[C@@H]43)n(C3CCCC3)n2)cnc1N [Compound 156, 5-(1-cyclopentyl-5-((1R,5S,6r)-3-(oxe-tan-3-yl)-3-azabicyclo[3.1.0]hexan-6-yl)-1H-pyrazol-3-yl)-3-isopropoxy-pyridin-2-amine]",0.032
4,"COc1cc(-c2cc([C@H]3[C@@H]4CN(C5COC5)C[C@@H]43)n(C3CCCC3)n2)cnc1N [Compound 157, 5-(1-cyclopentyl-5-((1R,5S,6r)-3-(oxe-tan-3-yl)-3-azabicyclo[3.1.0]hexan-6-yl)-1H-pyrazol-3-yl)-3-methoxy-pyridin-2-amine]",0.035
5,"CC(C)n1nc(-c2cnc(N)c(C(F)F)c2)cc1[C@H]1[C@@H]2CN(C3COC3)C[C@@H]21 [Compound 158, 3-(difluoromethyl)-5-(1-isopropyl-5-((1R,5S,6r)-3-(oxetan-3-yl)-3-azabi-cyclo[3.1.0]hexan-6-yl)-1H-pyrazol-3-yl)pyridin-2-amine]",0.035
6,"Nc1ncc(-c2cc([C@H]3[C@@H]4CN(C5COC5)C[C@@H]43)n(C3CCC3)n2)cc1OC(F)(F)F [Compound 163, 5-(1-cyclobutyl-5-((1R,5S,6r)-3-(oxe-tan-3-yl)-3-azabicyclo[3.1.0]hexan-6-yl)-1H-pyrazol-3-yl)-3-(trifluorometh-oxy)pyridin-2-amine]",0.013
7,"CC(C)n1nc(-c2cnc(N)c(OC(F)(F)F)c2)cc1[C@H]1[C@@H]2CN(C3COC3)C[C@@H]21 [Compound 165, 5-(1-isopropyl-5-((1R,5S,6r)-3-(oxe-tan-3-yl)-3-azabicyclo[3.1.0]hexan-6-yl)-1H-pyrazol-3-yl)-3-(trifluorometh-oxy)pyridin-2-amine]",0.0019
8,"Nc1ncc(-c2cc([C@H]3[C@@H]4CN(C5COC5)C[C@@H]43)n(C3CCCC3)n2)cc1OC(F)(F)F [Compound 166, 5-(1-cyclopentyl-5-((1R,5S,6r)-3-(oxe-tan-3-yl)-3-azabicyclo[3.1.0]hexan-6-yl)-1H-pyrazol-3-yl)-3-(trifluoro-methoxy)pyridin-2-amine]",0.0047
9,"CC(C)(C)n1nc(-c2cnc(N)c(C(F)(F)F)c2)cc1[C@H]1[C@@H]2CN(C3COC3)C[C@@H]21 [Compound 167, 5-(1-(tert-butyl)-5-((1R,5S,6r)-3-(oxe-tan-3-yl)-3-azabicyclo[3.1.0]hexan-6-yl)-1H-pyrazol-3-yl)-3-(trifluorometh-yl)pyridin-2-amine]",0.027
10,"Nc1ncc(-c2cc([C@H]3[C@@H]4CN(C5COC5)C[C@@H]43)n(C3CC3)n2)cc1C(F)(F)F [Compound 168, 5-(1-cyclopropyl-5-((1R,5S,6r)-3-(oxe-tan-3-yl)-3-azabicyclo[3.1.0]hexan-6-yl)-1H-pyrazol-3-yl)-3-(trifluoro-methyl)pyridin-2-amine]",0.0047
11,"Nc1ncc(-c2cc([C@H]3[C@@H]4CN(C5COC5)C[C@@H]43)n(C3CC3)n2)cc1C(F)F [Compound 170, 5-(1-cyclopropyl-5-((1R,5S,6r)-3-(oxe-tan-3-yl)-3-azabicyclo[3.1.0]hexan-6-yl)-1H-pyrazol-3-yl)-3-(difluoro-methyl)pyridin-2-amine]",0.012
12,"Nc1ncc(-c2cc([C@H]3[C@@H]4CN(C5COC5)C[C@@H]43)n(C3CCCC3)n2)cc1C(F)F [Compound 171, 5-(1-cyclopentyl-5-((1R,5S,6r)-3-(oxe-tan-3-yl)-3-azabicyclo[3.1.0]hexan-6-yl)-1H-pyrazol-3-yl)-3-(difluoro-methyl)pyridin-2-amine]",0.016
13,"Nc1ncc(-c2cc([C@H]3[C@@H]4CN(C5COC5)C[C@@H]43)n(CC(F)(F)F)n2)cc1C(F)(F)F [Compound 174, 5-(5-((1R,5S,6r)-3-(oxetan-3-yl)-3-azabicyclo[3.1.0]hexan-6-yl)-1-(2,2,2-trifluoroethyl)-1H-pyrazol-3-yl)-3-(trifluoromethyl)pyridin-2-amine]",0.0016
14,"CC(C)n1nc(-c2cnc(N)c(C(C)(F)F)c2)cc1[C@H]1[C@@H]2CN(C3COC3)C[C@@H]21 [Compound 175, 3-(1,1-difluoroethyl)-5-(1-isopropyl-5-((1R,5S,6r)-3-(oxetan-3-yl)-3-aza-bicyclo[3.1.0]hexan-6-yl)-1H-pyrazol-3-yl)pyridin-2-amine]",0.0092
15,"CC1(Cn2nc(-c3cnc(N)c(C(F)(F)F)c3)cc2[C@H]2[C@@H]3CN(C4COC4)C[C@@H]32)CC1 [Compound 177, 5-(1-((1-methylcyclopropyl)methyl)-5-((1R,5S,6r)-3-(oxetan-3-yl)-3-aza-bicyclo[3.1.0]hexan-6-yl)-1H-pyrazol-3-yl)-3-(trifluoromethyl)pyridin-2-amine]",0.00067

# Now from value to compound:
row,Ki [µM],Structure (SMILES)
1,0.00017,"Nc1ncc(-c2cc([C@H]3[C@@H]4CN(C5COC5)C[C@@H]43)n(CC3CC3)n2)cc1C(F)(F)F [Compound 152, 5-(1-(cyclopropylmethyl)-5-((1R,5S,6r)-3-(oxetan-3-yl)-3-azabicyclo[3.1.0]hexan-6-yl)-1H-pyrazol-3-yl)-3-(tri-fluoromethyl)pyridin-2-amine]"
2,0.025,"Nc1ncc(-c2cc([C@H]3[C@@H]4CN(C5COC5)C[C@@H]43)n(CC3CC3)n2)cc1Cl [Compound 154, 3-chloro-5-(1-(cyclopropylmethyl)-5-((1R,5S,6r)-3-(oxetan-3-yl)-3-azabicyclo[3.1.0]hexan-6-yl)-1H-pyrazol-3-yl)pyridin-2-amine]"
3,0.0081,"Nc1ncc(-c2cc([C@H]3[C@@H]4CN(C5COC5)C[C@@H]43)n(CC3CCC3)n2)cc1C(F)(F)F [Compound 160, 5-(1-(cyclobutylmethyl)-5-((1R,5S,6r)-3-(oxetan-3-yl)-3-azabicyclo[3.1.0]hexan-6-yl)-1H-pyrazol-3-yl)-3-(tri-fluoromethyl)pyridin-2-amine]"
4,0.021,"Nc1ncc(-c2cc([C@H]3[C@@H]4CN(C5COC5)C[C@@H]43)n(CC3CC3)n2)cc1C1CC1 [Compound 161, 3-cyclopropyl-5-(1-(cyclopropylmeth-yl)-5-((1R,5S,6r)-3-(oxetan-3-yl)-3-azabicyclo[3.1.0]hexan-6-yl)-1H-pyrazol-3-yl)pyridin-2-amine]"
5,0.066,"Nc1ncc(-c2cc([C@H]3[C@@H]4CN(C5COC5)C[C@@H]43)n(CC3CCC3)n2)cc1C1CC1 [Compound 162, 5-(1-(cyclobutylmethyl)-5-((1R,5S,6r)-3-(oxetan-3-yl)-3-azabicyclo[3.1.0]hexan-6-yl)-1H-pyrazol-3-yl)-3-cyclopropylpyridin-2-amine]"
6,0.013,"Nc1ncc(-c2cc([C@H]3[C@@H]4CN(C5COC5)C[C@@H]43)n(CC3CCC3)n2)cc1OC(F)F [Compound 164, 5-(1-(cyclobutylmethyl)-5-((1R,5S,6r)-3-(oxetan-3-yl)-3-azabicyclo[3.1.0]hexan-6-yl)-1H-pyrazol-3-yl)-3-(di-fluoromethoxy)pyridin-2-amine]"
7,0.041,"Nc1ncc(-c2cc([C@H]3[C@@H]4CN(C5COC5)C[C@@H]43)n(CC3CC3)n2)cc1C(F)F [Compound 169, 5-(1-(cyclopropylmethyl)-5-((1R,5S,6r)-3-(oxetan-3-yl)-3-azabicyclo[3.1.0]hexan-6-yl)-1H-pyrazol-3-yl)-3-(di-fluoromethyl)pyridin-2-amine]"
8,0.0039,"Nc1ncc(-c2cc([C@H]3[C@@H]4CN(C5COC5)C[C@@H]43)n(CC3CC3)n2)cc1OC(F)F [Compound 173, 5-(1-(cyclopropylmethyl)-5-((1R,5S,6r)-3-(oxetan-3-yl)-3-azabicyclo[3.1.0]hexan-6-yl)-1H-pyrazol-3-yl)-3-(difluoromethoxy)pyridin-2-amine]"

# Target: T1, DLK
# Test: biochemical
# Settings: not given
row,Ki [nM],Structure (SMILES)
1,29,"Cc1c[nH]c2ncc(-c3cc(C4CCOC4)n(CC4CC4)n3)cc12 (racemic) [Compound 13, 5-(1-(cyclopropylmethyl)-5-(tetrahydrofuran-3-yl)-1H-pyrazol-3-yl)-3-methyl-1H-pyrrolo[2,3-b]pyridine]"
2,> 1000,"CC(C)n1nc(-c2cnc(N)c(C(F)F)c2)cc1C(C)(C)C#N [Compound 5, 2-(3-(6-amino-5-(difluoromethyl)pyridin-3-yl)-1-isopropyl-1H-pyrazol-5-yl)-2-methylpropanenitrile]"
3,> 1000,"Nc1ncc(-c2cc(C3CCOCC3)n(C3CC(F)(F)C3)n2)cc1F [Compound 37, 5-(1-(3,3-difluorocyclobutyl)-5-(tetra-hydro-2H-pyran-4-yl)-1H-pyrazol-3-yl)-3-fluoropyridin-2-amine]"
4,> 1000,"CC(C)n1nc(-c2cnc3c(c2)C(C)(C)C(=O)N3)cc1C1CN(C2COC2)C1 [Compound 61, 5-(1-isopropyl-5-(1-(oxetan-3-yl)aze-tidin-3-yl)-1H-pyrazol-3-yl)-3,3-dimeth-yl-1H-pyrrolo[2,3-b]pyridin-2(3H)-one]"
